Data on two molecules can be found in patent US11352391B2, “Compositions for inducing urinary voiding and defecation” (Dignify Therapeutics, LLC, priority 2017, dated 2022).

Broadly, the half-life is how long it takes for the measured level to halve. As a reminder, the pEC50 is the EC50 on a negative log10 scale, so that one unit is a factor of ten. A word on the pKi: it is the Ki on a negative log10 scale, so that one unit is a factor of ten. A word on the solubility: it is how much of the substance goes into solution per volume. Lower therefore signals little dissolved substance.

A short description of data set [1]: Pharmacokinetics in rat plasma after cassette IV bolus dosing. The following applies: Sprague-Dawley, in vivo, iv. Here is the method:
The concentrations of compounds (SEQ ID NOS: 1-11) were measured in rat plasma after intravenous (IV) bolus dosing to determine pharmacokinetic profiles of individual compounds.
Animal preparation: In vivo studies were performed in anesthetized adult Sprague Dawley rats. Rats were anesthetized with urethane (1.2-1.4 g/kg subcutaneous injection). Surgical procedures were then performed with the addition of isoflurane anesthesia (0.05-1.5% in 02) as needed. A venous cannula was inserted into the jugular vein for intravenous (IV) administration of compounds.
In vivo dosing and plasma sampling: Compounds were divided into two groups (soluble and insoluble). Each group was dosed as a cassette in which four compounds (100 μg/kg each compound) were combined into a single IV bolus injection to anesthetized adult Sprague-Dawley rats. Soluble compounds were dissolved in saline. Insoluble compounds were dissolved in a 10% ethanol/saline solution. Rats were cassette dosed based on weight using 0.1 mg/mL solutions of individual compounds. Blood samples (700 μL) were collected using a carotid artery cannula into EDTA tubes containing ascorbic acid (final concentration 1%), and plasma was isolated.
Bioanalytical assay: A reversed-phase HPLC with Turbo Ion Spray MS/MS detection method was developed for bioanalysis. Mass spec transition and settings were individually optimized for each compound and then compounds were cassetted for HPLC method development and optimization. [^13C9; ^15N] [Lys5,MeLeu9,Nle10]-NKA(4-10) was used as an internal standard (IS). Analyte-to-IS peak area ratios for individual compounds were used to create linear calibration curves (1-20 ng/mL) using 1/×2 weighted least-squares regression analysis for evaluation of method linearity, precision and accuracy. For plasma concentration measurements, plasma samples were spiked with IS, processed by extraction, and analyzed using LC-MS/MS. Positive (M+H)+ ions for individual compounds and IS were monitored in MRM mode.

For data set [2], the target named is T1, recombinant hNK2R expressed in CHO cells (Homo sapiens, UniProt P21452).
T1 sequence (P21452 1-398): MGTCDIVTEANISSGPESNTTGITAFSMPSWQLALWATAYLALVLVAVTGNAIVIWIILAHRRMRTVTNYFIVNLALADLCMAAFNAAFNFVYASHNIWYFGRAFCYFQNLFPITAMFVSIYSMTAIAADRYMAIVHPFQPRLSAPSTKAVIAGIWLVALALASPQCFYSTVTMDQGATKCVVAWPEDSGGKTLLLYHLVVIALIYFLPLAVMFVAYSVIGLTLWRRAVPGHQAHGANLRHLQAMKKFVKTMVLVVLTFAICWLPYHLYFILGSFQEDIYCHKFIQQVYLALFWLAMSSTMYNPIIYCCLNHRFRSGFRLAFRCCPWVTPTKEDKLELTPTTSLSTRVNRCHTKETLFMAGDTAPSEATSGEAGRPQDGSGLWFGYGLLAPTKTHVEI
The experiment in a line: Intracellular calcium mobilization (FLIPR) in CHO-hNK2 cells. It counts as cell-based. Conditions: for pEC50: calcium mobilization, CHO-hNK2 cells, read-out: hNK2 EC50; for hNK2 selectivity ratio: ratio of EC50s hNK1R/hNK2R. The method, then:
(§1) CHO-hNK1 and CHO-hNK2 cells were seeded into black walled clear-bottom 384-well plates) at a density of 10,000 and 15,000 cells per well in 50 μL culture media, respectively, and grown overnight at 37° C. in a humidified CO2-incubator. Cells were washed in washing buffer using the EMBLA 384 instrument, leaving 20 μL of buffer per well after the final aspiration. Cells were then incubated at 37° C. with the cytoplasmic Ca2+ indicator Fluo-4 AM (final concentration 1 μM) in assay buffer (20 mM HEPES, 145 mM NaCl, 5 mM KCl, 5.5 mM glucose, 1 mM MgCl2 and 2 mM CaCl2, pH 7.4, 0.05% Pluronic F-127 and 0.1% BSA) containing 2.5 mM probenecid for […] (cell loading). Cells were then washed 3 times in washing buffer (20 mM HEPES, 145 mM NaCl, 5 mM KCl, 5.5 mM glucose, 1 mM MgCl2 and 2 mM CaCl2, pH 7.4 and 2.5 mM probenecid) using the EMBLA 384 instrument, leaving 30 μL of buffer in each well after the last wash. Loaded cell plates were transferred to the FLIPR machine and calcium responses were monitored as described below. A dual read-out FLIPR protocol was used, allowing for characterization of both agonist and antagonist profiles. For quality control, in each compound plate the signal was monitored by evaluating the responses to the reference standards (NKA and Substance P).
(§2) Concentration response curves of compounds were run in duplicate on two different occasions from the same stock solutions. Test solutions were prepared from 10 mM stock solutions in DMSO and 1 μL of each solution was stamped into V-bottom assay plates containing 49 μL assay buffer. The final concentration of DMSO was 0.5% in each well.
(Calcium flux is commonly read through the fluorescence of an indicator in the cells.)

Data set [3] addresses human NK1 Receptor (hNK1R) (Homo sapiens, UniProt P25103). Kind of data set: [3H]-septide radioligand competition binding to human recombinant NK1Rs (CHO-hNK1 membranes). Conditions: displacement of 5.0 nM [3H]-septide, CHO-hNK1 membranes; read-out: hNK1 binding Ki. Here is the method: (§3) After removal of the supernatant the cell pellet was washed and collected by re-suspension in PBS and centrifugation.
(§4) Frozen pellets were thawed and homogenized in 10 volumes (w/v) of membrane preparation buffer (50 mM HEPES pH 7.4, 1 mM EDTA, 50 μg/mL bacitracin and protease inhibitors) using a Polytron Ultraturrax (twice for 15 s per cycle). […] Protein concentration was determined using BioRad Protein Assay (Milan, Italy) with a BSA standard curve.

Data set [4] deals with T2, human NK2 Receptor (hNK2R) (Homo sapiens, UniProt P21452).
T2 sequence (P21452 1-398): T1 sequence (P21452 1-398)
Kind of data set: [125I]-NKA radioligand competition binding to human recombinant NK2Rs (CHO-hNK2 membranes). The following applies: for pKi: displacement of 0.1 nM [125I]-NKA, CHO-hNK2 membranes, read-out: hNK2 binding Ki; for hNK2 selectivity ratio: ratio of Kis hNK1R/hNK2R. Here is the method:
as §3, §4
A general note: In a radioligand displacement assay an active substance lowers the binding of a labelled ligand.

A short description of data set [5]: Saline solubility of heptapeptides. It counts as physicochemical. The method, then: Heptapeptides A-K shown below in Table 1 (SEQ ID NOs: 1-11) were synthesized according to standard Fmoc-mediated solid-phase techniques and purified under typical C18 reverse-phase conditions.
Compounds D-K were considered to be insoluble in saline (<1 mg/mL).

For data set [6], the target named is recombinant hNK1R expressed in CHO cells (Homo sapiens, UniProt P25103). Kind of data set: Intracellular calcium mobilization (FLIPR) in CHO-hNK1 cells. It counts as cell-based. Conditions: calcium mobilization, CHO-hNK1 cells; read-out: hNK1 EC50. Here is the method:
as §1, §2

Data set [7] concerns anesthetized dog. Kind of data set: Colorectal pressure manometry in anesthetized dog. It counts as in vivo. Conditions: for duration of colorectal pressure response: IV bolus (B and E 3 μg/kg; G 3, 30 and 66 ug/kg); for onset of increase in colorectal pressure: IV bolus (E 3 μg/kg; G 3, 30 and 66 ug/kg). Here is the method: Animal preparation: Naïve beagle dogs were fasted for 12-24 hours and received a warm water enema the night prior to, and the morning of, the experiment to clear the rectum and lower colon of feces. The day of the experiment, a 20 gauge IV catheter (Terumo Surflo) was placed in the cephalic vein for anesthetic induction (propofol, 10 mg/kg; IV) and delivery of IV fluids (5-10 ml/kg/hr) and compounds. The sedated dog was intubated with a 5-6 Fr tracheal tube and was maintained on 2-3% isoflurane via a ventilator (15-25 breaths/min; tidal volume […]) for the remainder of the experiment.
Bowel contractility: For colorectal pressure manometry, an ˜3 inch balloon catheter was inserted into the rectum and secured to the tail with tape. This catheter was connected via a three-way stopcock to a pressure transducer (UTAH MEDICAL PRODUCTS; DelTran II) for pressure recording. Data were recorded using PowerLab/8SP acquisition system using LabChart software (version 7.3.7; ADINSTRUMENTS, Australia). Arterial pressure, ECG, temperature and blood oxygen saturation (spO2) were monitored throughout the experiment (MEDTRONIC LIFEPAK12). Dogs were recovered in a quiet room under veterinary supervision.

pEC50, pKi: −log10 of the molar value. Where a SMILES comes first, the peptide text is derived from it. Some results are limits rather than exact numbers.

human NK1 Receptor (hNK1R), sequence (P25103 whole entry): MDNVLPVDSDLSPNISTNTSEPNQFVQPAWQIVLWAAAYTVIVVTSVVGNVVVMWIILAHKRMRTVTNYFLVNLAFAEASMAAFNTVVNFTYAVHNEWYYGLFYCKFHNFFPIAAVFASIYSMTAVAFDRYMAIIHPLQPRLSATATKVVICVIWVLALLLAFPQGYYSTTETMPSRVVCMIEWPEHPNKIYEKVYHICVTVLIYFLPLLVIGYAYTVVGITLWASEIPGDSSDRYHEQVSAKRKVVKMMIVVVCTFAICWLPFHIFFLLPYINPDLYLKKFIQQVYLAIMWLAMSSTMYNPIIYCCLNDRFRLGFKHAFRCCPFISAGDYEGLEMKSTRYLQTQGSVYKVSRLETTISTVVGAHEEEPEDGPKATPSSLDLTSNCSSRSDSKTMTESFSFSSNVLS
recombinant hNK1R expressed in CHO cells, sequence (P25103 whole entry): as above

In the case of `CSCC[C@H](NC(=O)[C@H](CC(C)C)NC(=O)CCNC(=O)[C@@H](NC(=O)[C@H](Cc1ccccc1)NC(=O)[C@H](CCCCN)NC(=O)[C@@H](N)CC(=O)O)C(C)C)C(N)=O` [Compound E, Asp-Lys-Phe-Val-(β-Ala)-Leu-Met-NH2] (HELM PEPTIDE1{D.K.F.V.[bAla].L.M.[am]}$$$$V2.0; N-terminus assumed), the half-life in data set [1] lay within 3.3 to 4.7 min. Moreover, in data set [2], the negative-log EC50 (pEC50) was 9.74 and the hNK2 selectivity ratio turned out to be 36. The negative logarithm of the Ki (pKi) in data set [3] was 6.59. For the same molecule, in data set [4], the negative logarithm of the Ki (pKi) was 8.68 and the hNK2 selectivity ratio came out at 122.04. Further, the solubility in data set [5] is less than 1000 µg/mL. The negative logarithm of the EC50 (pEC50) in data set [6] was 8.20. In data set [7], the “duration of colorectal pressure response” value was “approximately 4 minutes” and the “onset of increase in colorectal pressure” value is not above 1 min.

In the case of `CCCC[C@H](NC(=O)[C@H](CC(C)C)NC(=O)CCNC(=O)[C@@H](NC(=O)[C@H](Cc1ccccc1)NC(=O)[C@H](CCCCN)NC(=O)[C@@H](N)CC(=O)O)C(C)C)C(N)=O` [Compound G, Asp-Lys-Phe-Val-(β-Ala)-Leu-Nle-NH2] (HELM PEPTIDE1{D.K.F.V.[bAla].L.[Nle].[am]}$$$$V2.0; N-terminus assumed), the half-life in data set [1] is 3.3 to 4.7 min. Besides, in data set [2], the pEC50 was 8.52 and the hNK2 selectivity ratio worked out at 26. Also, the pKi in data set [3] is 5.51. Also, in data set [4], the negative-log Ki (pKi) was 7.79 and the hNK2 selectivity ratio is given as 188.58. In data set [5], this molecule gave a solubility of less than 1000 µg/mL. Also, the pEC50 in data set [6] was 7.11. Also, in data set [7], the “duration of colorectal pressure response” value is “approximately 5 minutes” and the “onset of increase in colorectal pressure” value was not above 1 min.
